The record followed here is patent US7071197B2, “N,N-disubstituted diazocycloalkanes” (Recordati S.A., priority 2002, dated 2006).

The target in assay [1] is T1, human α1b-adrenoceptor (Homo sapiens, UniProt P35368).
T1 construct: expressed in transfected cells
T1 sequence (P35368 1-520): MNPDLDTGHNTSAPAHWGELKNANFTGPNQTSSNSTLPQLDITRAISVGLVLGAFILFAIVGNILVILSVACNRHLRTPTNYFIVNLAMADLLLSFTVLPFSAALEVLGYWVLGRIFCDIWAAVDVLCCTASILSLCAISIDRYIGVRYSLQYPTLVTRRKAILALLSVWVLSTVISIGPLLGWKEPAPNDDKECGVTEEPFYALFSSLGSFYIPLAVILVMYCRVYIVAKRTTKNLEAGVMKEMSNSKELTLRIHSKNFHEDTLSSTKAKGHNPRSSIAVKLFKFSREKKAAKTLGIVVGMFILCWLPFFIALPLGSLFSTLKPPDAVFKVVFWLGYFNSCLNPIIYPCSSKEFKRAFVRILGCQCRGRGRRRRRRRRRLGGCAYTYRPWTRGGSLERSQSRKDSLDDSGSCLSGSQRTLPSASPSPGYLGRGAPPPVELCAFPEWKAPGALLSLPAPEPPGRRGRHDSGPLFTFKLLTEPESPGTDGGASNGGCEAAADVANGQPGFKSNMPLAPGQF
The assay is described as follows: [3H]prazosin binding to cloned human α1-adrenoceptor subtypes (α1b). The note with it: for Ki: [3H]prazosin, CHO cell membranes, read-out: Binding affinity (Ki, nM) α1b; for α1b/5-HT1A: selectivity: ratio of Ki at α1b and Ki at 5-HT1A. As for the experimental part: Binding to cloned human α1-adrenoceptor subtypes was performed in membranes from CHO cells (chinese hamster ovary cells) transfected by electroporation with DNA expressing the gene encoding each α1-adrenoceptor subtype. Cloning and stable expression of the human α1-adrenoceptor gene was performed as previously described (Testa et al. Pharmacol. Comm., 6: 79–86,1995).
CHO cells were grown in suspension in Iscove's modified Dulbecco's medium, supplemented with 10% fetal calf serum and gentamicin (50 μg/ml), at 37° C. in 7% CO2 in an humidified incubator. Cells were collected by centrifugation, lised in ice-cold Tris 5 mM and EDTA 5 mM buffer (pH 7.4) and gently homogenised. Homogenates were centrifuged at 40000×g×20 min and pellets were resuspended in a small volume of ice-cold Tris 5 mM and EDTA 5 mM buffer (pH 7.4) and immediately frozen and stored at −80° C. until use.
CHO cell membranes were resuspended and incubated in 50 mM Tris, pH 7.4, with 0.2 nM [^3H]prazosin, in a final volume of 1.02 ml for 30 min at 25° C., in absence or presence of competing drugs. Non-specific binding was determined in the presence of 10 μM phentolamine. The incubation was stopped by rapid filtration through 0.2% polyethyleneimine pretreated Schleicher & Schuell GF52 filters using a Tomtec (PerkinElmer) cell harvester. The filters were washed with 3×1 ml of ice-cold Tris buffer, dried and the radioactivity was measured in a Betaplate (Wallac) liquid scintillation counter.
The inhibition of specific binding by the compounds was analysed to estimate the IC50 value by the non-linear curve-fitting program Allfit (De Lean et al. Am. J. Physiol. 235, E97-E102, 1978). The IC50 value is converted to an affinity constant (Ki) by the equation of Cheng & Prusoff (Biochem. Pharmacol. 22: 3099–3108, 1973).

The target of assay [2] is T2, rat D3 dopamine receptors (Rattus norvegicus, UniProt P19020).
T2 construct: expressed in transfected cells; host or cells: CHO cells (permanent expression)
The assay is described as follows: [3H]-7-OH-DPAT binding to rat recombinant D3 dopamine receptors (SPA). As to conditions: for Ki: [3H]-7-OH-DPAT, CHO cell membranes, read-out: Binding affinity for D3 dopamine receptors Ki; for D3/5-HT1A: selectivity: ratio of Ki at D3 and Ki at 5-HT1A. As for the experimental part:
Cloned rat D3 dopamine receptors permanently expressed in CHO cells were used (Chio et al. Mol. Pharmacol. 45, 51–60, 1994). Membranes were prepared by mechanical disruption of cell pellets in ice cold 50 mM Tris, 5 mM EDTA, 5 mM EGTA, pH 7.4 followed by low (100 g), medium (20000 g) and high (80000 g) speed centrifugation steps. Competition radioligand binding experiments employed 11 drug concentrations run in duplicate in a scintillation proximity assay (SPA) format. The radioligand used was [^3H]-7-OH-DPAT (154 Ci/mmol). […] binding (75–95% of total) was defined with cold haloperidol added in excess (3 μM). Total binding was determined with buffer: 20 mM HEPES, 10 mM MgSO4, 150 mM NaCl, 1 mM EDTA (pH 7.4). Binding mixtures were made in flexible, 96-well, Wallac Micro-Beta plates by the addition of 11 μl of drug dilution, 11 μl of radioligand, and 178 μl of membrane/SPA bead suspension (100 mg of WGA-coated SPA beads incubated with 5–15 μg protein/plate in 10 ml binding buffer for 30 minutes at room temperature followed by low-speed centrifugation and resuspension in 2 ml binding buffer). After sealing and incubation at room temperature for 1 hour the plates were counted in a Wallac Micro-Beta scintillation counter.
IC50 values from both assay methods were estimated by fitting the data to a one-site competition model: Y=T/(1+10^log(X)−log(IC50)), where Y is the specific CPM's bound at concentration X and T is the specific CPM's bound in the absence of competitor. Inhibition constants (Ki) were calculated using the Cheng-Prushoff equation (Biochem. Pharmacol. 22: 3099–3108, 1973).

Molecules are shown by their SMILES.

T2 sequence (P19020 whole entry): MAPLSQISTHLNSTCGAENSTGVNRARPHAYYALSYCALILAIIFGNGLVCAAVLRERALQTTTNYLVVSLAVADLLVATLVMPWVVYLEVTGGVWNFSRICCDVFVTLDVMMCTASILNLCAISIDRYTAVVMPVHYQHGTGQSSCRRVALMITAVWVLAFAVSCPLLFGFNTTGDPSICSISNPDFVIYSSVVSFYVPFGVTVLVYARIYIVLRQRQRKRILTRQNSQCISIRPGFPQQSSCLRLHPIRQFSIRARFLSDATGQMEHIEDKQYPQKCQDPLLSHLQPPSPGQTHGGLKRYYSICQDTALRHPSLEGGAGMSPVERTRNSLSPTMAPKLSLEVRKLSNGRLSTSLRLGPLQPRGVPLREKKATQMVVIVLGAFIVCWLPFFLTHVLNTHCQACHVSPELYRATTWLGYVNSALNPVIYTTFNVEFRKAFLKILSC

On to `COc1ccccc1N1CCN(CC[C@@H](c2ccccc2F)[C@H](O)C2CCCCC2)CC1` (racemic) [Ex. 1, 1-[(SR-RS)-4-cyclohexyl-4-hydroxy-3-(2-fluorophenyl)-butyl]-4-(2-methoxyphenyl)-piperazine], for which, in assay [1], the inhibition constant (Ki) (usually the equilibrium dissociation constant of an inhibitor or competing ligand from its target) is 5.9 nM and the α1b/5-HT1A came to 45. In assay [2], the inhibition constant (Ki) turned out to be 12.5 nM and the D3/5-HT1A is given as 96.
Taken in the same sequence, the figures for `COc1ccccc1N1CCN(CC[C@H](c2ccccc2)[C@@H](O)C2CCCCC2)CC1` (racemic) [Ex. 5, 1-[(RS,SR)-4-Cyclohexyl-4-hydroxy-3-phenyl-butyl]-4-(2-methoxyphenyl)-piperazine, reference compound] were 12 nM, 18, 7 nM and 11.
Taken in the same sequence, the figures for `COc1ccccc1N1CCN(CC[C@H](c2ccccc2F)[C@@H](O)C2CCCCC2)CC1` [Ex. 1Y, 1-[(3R,4S)-4-cyclohexyl-4-hydroxy-3-(2-fluorophenyl)-butyl]-4-(2-methoxyphenyl)-piperazine] were 11 nM, 30, 20 nM and 54.
For `COc1ccccc1N1CCN(CC[C@H](c2ccccc2F)[C@H](O)C2CCCCC2)CC1` [Ex. 2X, 1-[(3R,4R)-4-cyclohexyl-4-hydroxy-3-(2-fluorophenyl)-butyl]-4-(2-methoxyphenyl)-piperazine] the same measures were 11 nM, 46, 3 nM and 12.
